The target in data set [1] is T1, Panx-1 channels (Mus musculus, UniProt Q9JIP4).
T1 construct: expressed in transfected cells; host or cells: Xenopus laevis oocytes injected with in vitro-transcribed mRNA
The data set is described as follows: Voltage clamp on Xenopus laevis oocytes expressing Panx-1 channels. It counts as cell-based. The note with it: for inhibition at 50 µM / I (%) inhibition of Panx-1 currents: voltage clamp, Xenopus laevis oocytes expressing Panx-1 channels, 50 µM; for inhibition at 50 µM: read-out: I (%) inhibition of Panx-1 currents. As for the experimental part: All new products were screened as Panx-1 blockers at the dose of 50 µM using the Voltage Clamp technique on Xenopus Laevis oocytes expressing Panx-1 channels. The membrane potential of the cells was held at -60 mV and voltage steps to +60 mV were applied to induce membrane currents. To verify that Panx-1 channels carried the currents, in each experiment 100 µM carbenoxolone (CBX) was applied. At this concentration, CBX is known to yield 100% inhibition of Panx-1 activity. If present, leak currents resistant to CBX were subtracted from the total current to assess % inhibition mediated by the tested compounds. Table 1 and Table 2 report the electrophysiological results of naphthalene-2-sulphonic acid derivatives bearing at position 5 an amino- (3a–e, 4 and 5) or amide group (7a–g, 8 and 9) and of compound 13.
Oocytes of Xenopus laevis are prepared as previously described in [39] where the oocytes are isolated from surgically removed ovary segments incubated in an Oocyte Ringe solution Ca2-free (OR2: in mM: 82.5 NaCl, 2.5 KCl, 1.0 MgCl2, […], 1.0 Na2HPO4 e 5.0 HEPES, pH 7.5) with 2 mg/mL of collagenase and antibiotics (10,000 U/mL penicillin and 10 mg/mL of streptomycin) stirred at room temperature for 3 h. After being washed with OR2, oocytes free of follicular cells and that have a uniform pigmentation are chosen and stored in OR2 for 18 °C.
Mouse pannexin1, in pCS2, was linearised with NotI. In vitro transcription was performed with the polymerase SP6, using the Message Machine kit (Ambion). mRNA was quantified by absorbance (260 nm), and the proportion of full-length transcripts was checked by agarose gel electrophoresis. In vitro-transcribed mRNA (~20 nL) was injected into Xenopus laevis oocytes.
Whole-cell membrane currents of oocytes were measured using a two-electrode voltage clamp (Gene Clamp 500B, Axon Instruments/Molecular Devices Sunnyvale, Union City, CA, USA). Glass pipettes were pulled using a P-97 Flaming/Brown type puller (Sutter, Novato, CA, USA). The recording chamber was perfused continuously with frog Ringer (OR) solution (in mM: 82.5 NaCl, 2.5 KCl, 1 CaCl2, 1 MgCl2, 1 Na2HPO4, and 5 HEPES, pH 7.5).
Membrane conductance was determined using voltage pulses, and the pulse-induced current amplitudes were divided by the amplitudes of the voltage steps. For calculation of % inhibition, leak currents were subtracted. Typically, leak currents after the interventions were smaller than at the beginning of the experiment and this smaller value was used for the subtraction to avoid overestimation of the inhibitory effect. For an independent measure of the leak current, oocytes at the end of the experiment were exposed to 100 µM carbenoxolone, which is known to close Panx1 channels 100%. Oocytes expressing Panx1 were held at −60 mV, and pulses to +60 mV were applied to transiently open the channels by means of the voltage gate. Pulses 5 s in duration were applied at 0.1 Hz for current and conductance measurements.

Data set [2] addresses T1, Panx-1 channels. Described as above. It counts as cell-based. As to conditions: for IC50: dose-response curves, Panx1-mediated membrane currents in oocytes.
The test system of data set [3] is oxaliplatin-induced thermal allodynia in mice. The data set is described as follows: Cold plate test in mouse model of oxaliplatin-induced neuropathic pain. It counts as in vivo. As to conditions: oxaliplatin-treated mice; for time of maximum anti-allodynic effect: 3 nmol intrathecally; for pain threshold (licking latency), Cold plate test: 1 nmol and 3 nmol intrathecally, vs oxaliplatin + vehicle. As for the experimental part:
The two selected Panx-1 blockers, 4 and 13, were tested in a mouse model of oxaliplatin-induced neuropathic pain that involves this channel. Oxaliplatin is a third-generation platinum-based chemotherapeutic agent that, similar to other platinum-based compounds, interferes with the proliferation of tumor cells, leading to cancer cell destruction […] Recent studies have highlighted the efficacy of selective Panx1 antagonists in […] evoked by repeated administrations of antineoplastic drug, making Panx1 a possible therapeutic target in reducing chemotherapeutic-induced neuropathic pain [16, 23]. In this experiment we tested the anti-hypersensitivity properties of two novel Panx1 antagonists in a mouse model of oxaliplatin-induced thermal allodynia. […] This time delay is reported here as licking latency (s). The two compounds were acutely injected intrathecally at 1 nmol and 3 nmol in oxaliplatin-treated animals. […] The effect recorded was dose-dependent (Figure 5b).
Eight-week-old male CD-1 mice (Envigo, Varese, Italy) weighing approximately 20–25 g at the beginning of the experimental procedure were used. Animals were housed in the Centro Stabulazione Animali da Laboratorio (CeSAL; University of Florence, Italy) and used at least 1 week after their arrival; 10 mice were housed per cage (size 26 cm × 41 cm). Animals were fed a standard laboratory diet and tap water ad libitum and kept at 23 ± 1 °C with a 12 h light/dark cycle (light at 7 a.m.).
Mice treated with oxaliplatin (Carbosynth, Pangbourne, UK; 2.4 mg kg^−1) were administered intraperitoneally (i.p.) for 2 weeks Oxaliplatin was dissolved in a 5% glucose solution. Control animals received an equivalent volume of vehicle. Behavioural tests were performed starting from day 14, when neuropathy was well established.
Compounds 4 and 13 were intrathecally (i.t.) injected in conscious mice as previously described. Compound 4 was dissolved in sterile saline solution while compound 13 was dissolved in a mixture consisting of PEG400, TWEEN 20 and sterile saline solution (1:1:3, respectively). Briefly, a 25 µL Hamilton syringe connected to a 30-gauge needle was intervertebrally inserted between the L4 and L5 region, and advanced 6 mm into the lumbar enlargement of the spinal cord. Behavioural measurements were performed before and 15 min, 30 min, 45 min, and 60 min after the administration of compounds.
Thermal allodynia was assessed using the Cold-plate test. With minimal animal-handler interaction, mice were taken from home-cages, and placed onto the surface of the cold-plate (Ugo Basile, Varese, Italy) maintained at a constant temperature of 4 ± 1 °C. Ambulation was restricted by a cylindrical plexiglas chamber (diameter: 10 cm, height: 15 cm), with open top. A timer controlled by foot peddle began timing response latency from the moment the mouse was placed onto the cold-plate. Pain-related behaviour (licking of the hind paw) was observed, and the time (seconds) of the first sign was recorded. The cut-off time of the latency of paw lifting or licking was set at 30 s.
Figure 5 Pain-relieving effect of (a) 4 and (b) 13 on oxaliplatin-induced thermal allodynia in mice. Cold plate test. […] Pain-related behavior (i.e., lifting and licking of the hind paw) was observed and the time (s) of the first sign was recorded. ** p < 0.01 vs. vehicle + vehicle treated animals; ^ p < 0.05 and ^^ p < 0.01 vs. oxaliplatin + vehicle treated animals. […]

“Also recorded” adds a separate entry of the source.

T1 sequence (Q9JIP4 whole entry): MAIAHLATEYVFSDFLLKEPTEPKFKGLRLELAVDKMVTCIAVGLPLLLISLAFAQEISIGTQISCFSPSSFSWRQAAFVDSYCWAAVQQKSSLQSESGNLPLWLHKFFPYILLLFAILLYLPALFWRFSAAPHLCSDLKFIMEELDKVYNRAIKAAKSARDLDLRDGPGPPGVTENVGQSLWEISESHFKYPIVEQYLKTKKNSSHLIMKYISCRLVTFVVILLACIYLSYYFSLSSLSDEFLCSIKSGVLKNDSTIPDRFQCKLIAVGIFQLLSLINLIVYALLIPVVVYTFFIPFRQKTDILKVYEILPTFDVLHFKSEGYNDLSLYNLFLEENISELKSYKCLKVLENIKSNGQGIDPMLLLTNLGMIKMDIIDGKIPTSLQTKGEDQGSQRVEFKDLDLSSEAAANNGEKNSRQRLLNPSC

The inhibition is the share of the control response that was lost under treatment. As usually defined, the IC50 is the concentration needed to halve the response being measured. Higher therefore signals a need for much substance. For `O=S(=O)(O)c1ccc2c(NCCCc3ccccc3)cccc2c1` [Compound 3c, 5-[(3-Phenylpropyl)amino]naphthalene-2-sulfonic acid], the inhibition at 50 µM at Panx-1 channels [1] is 66.7 ± 5.5%. Further, inhibition on Panx-1 channels [2] was half-maximal at 9 µM (IC50).
On to `O=C(O)c1ccc(CNc2cccc3cc(S(=O)(=O)O)ccc23)cc1` [Compound 4, 4-[(6-Sulfonaphthalen-1-yl)aminomethyl]benzoic Acid], for which the inhibition at 50 µM on Panx-1 channels [1] turned out to be 97 ± 1.5%. Moreover, in data set [3], the “time of maximum anti-allodynic effect” value was 45 min and the “pain threshold (licking latency), Cold plate test” value is given as “significantly increase the mouse pain threshold; also recorded: significant enhancement of the pain threshold”. The “time after injection from which the enhancement of pain threshold is significant” value in data set [3] (intrathecal injection) is 30 min. This compound showed an IC50 on Panx-1 channels [2] of 8.8 µM.
Regarding `CCCCN(CCCC)S(=O)(=O)c1ccc(C(=O)Nc2cccc3cc(S(=O)(=O)O)ccc23)cc1` [Compound 7c, 5-[4-(N,N-dibutylsulfamoyl)benzamido]naphthalene-2-sulfonic acid], the inhibition at 50 µM on Panx-1 channels [1] is 67.8 ± 2.2%. Also, at Panx-1 channels [2], the IC50 was 40.4 µM.
With `O=C(Nc1cccc2cc(S(=O)(=O)O)ccc12)c1ccc(S(=O)(=O)N(Cc2ccccc2)Cc2ccccc2)cc1` [Compound 7d, 5-[4-(N,N-dibenzylsulfamoyl)benzamido]naphthalene-2-sulfonic acid], on Panx-1 channels [1], the “I (%) inhibition of Panx-1 currents” value is reported as 75.2 ± 5.90 (4) % and the inhibition at 50 µM is 75%. Moreover, the IC50 against Panx-1 channels [2] turned out to be 15.1 µM.
In the case of `O=C(O)c1ccc(CN(Cc2ccc(C(=O)O)cc2)S(=O)(=O)c2ccc(C(=O)O)cc2)cc1` [Compound 13, 4,4′-{{[(4-Carboxyphenyl)sulfonyl]azanediyl}bis(methylene)}dibenzoic acid], at Panx-1 channels [1], the “I (%) inhibition of Panx-1 currents” value worked out at 93.7 ± 2.3% and the inhibition at 50 µM was 94%. Also, in data set [3], the “time of maximum anti-allodynic effect” value came out at 45 min and the “pain threshold (licking latency), Cold plate test” value is recorded as “significantly increase the mouse pain threshold; also recorded: significant increase of the mouse pain threshold”. Besides, the “% inhibition of Panx1-mediated membrane currents” value on Panx-1 channels [2] (Figure 4 dose-response plot, concentration not printed in the legend) is reported as 100%. Moreover, inhibition against Panx-1 channels [2] was half-maximal at 1.2 µM (IC50).
In general, melting point refers to the temperature, or range, at which the solid turns liquid. Compound `CCCNS(=O)(=O)c1ccc(-n2ncc(C(=O)O)c2N)cc1` [Compound 18b, 5-Amino-1-(4-(N-propylsulfamoyl)phenyl)-1H-pyrazole-4-carboxylic acid] had a melting point of 215 to 218 °C. In addition, the inhibition at 50 µM on Panx-1 channels [1] amounted to 4 ± 2.3%.
Take `CCCCNS(=O)(=O)c1ccc(-n2ncc(C(=O)O)c2N)cc1` [Compound 18c, 5-Amino-1-(4-(N-butylsulfamoyl)phenyl)-1H-pyrazole-4-carboxylic acid]: the melting point is greater than 300 °C. The inhibition at 50 µM on Panx-1 channels [1] stood at 10.3 ± 4.9%.
Taken in the same sequence, the figures for `CCN(CC)S(=O)(=O)c1ccc(-n2ncc(C(=O)O)c2N)cc1` [Compound 19a, 5-Amino-1-(4-(N,N-diethylsulfamoyl)phenyl)-1H-pyrazole-4-carboxylic acid] were 240 °C (dec.) and 14.3 ± 7.4%.
The matching figures for `CCCN(CCC)S(=O)(=O)c1ccc(-n2ncc(C(=O)O)c2N)cc1` [Compound 19b, 5-Amino-1-(4-(N,N-dipropylsulfamoyl)phenyl)-1H-pyrazole-4-carboxylic acid]: 167 to 168 °C and 21 ± 7.8%.
In the case of `CCCNc1c(C(=O)O)cnn1-c1ccc(S(=O)(=O)N(CCC)CCC)cc1` [Compound 19c, 1-(4-(N,N-dipropylsulfamoyl)phenyl)-5-(propylamino)-1H-pyrazole-4-carboxylic acid], the melting point lay within 170 to 172 °C. Further, the inhibition at 50 µM at Panx-1 channels [1] turned out to be 28 ± 6.9%.
`Nc1c(C(=O)O)cnn1-c1ccc(S(=O)(=O)NCc2ccccc2)cc1` [Compound 23, 5-Amino-1-(4-(N-benzylsulfamoyl)phenyl)-1H-pyrazole-4-carboxylic acid] yielded a melting point of 207 to 210 °C. Besides, the inhibition at 50 µM on Panx-1 channels [1] worked out at 16.3 ± 6.4%.
Compound `Nc1c(C(=O)O)cnn1-c1ccc(S(=O)(=O)N(Cc2ccccc2)Cc2ccccc2)cc1` [Compound 24, 5-Amino-1-(4-(N,N-dibenzylsulfamoyl)phenyl)-1H-pyrazole-4-carboxylic acid] yielded a melting point of 168 to 170 °C. Besides, at Panx-1 channels [1], the “I (%) inhibition of Panx-1 currents” value is on record as 42.7 ± 2.4 (4) % and the inhibition at 50 µM was found to be 42%. For the same compound, the “classification as active or inactive Panx-1 blocker” value on Panx-1 channels [1] (grouping chosen for the virtual screening) was “inactive”.
On to `Nc1c(C(=O)O)cnn1-c1ccc(S(=O)(=O)NCCc2ccccc2)cc1` [Compound 28, 5-Amino-1-(4-(N-phenethylsulfamoyl)phenyl)-1H-pyrazole-4-carboxylic acid], for which the melting point was in the range of 186 to 188 °C. In addition, on Panx-1 channels [1], the inhibition at 50 µM stood at 22.7 ± 5.5%.
Taken in the same sequence, the figures for `O=C(O)c1cnn(-c2ccc(S(=O)(=O)NCCc3ccccc3)cc2)c1NCCc1ccccc1` [Compound 29, 5-(Phenethylamino)-1-(4-(N-phenethylsulfamoyl)phenyl)-1H-pyrazole-4-carboxylic acid] were 105 to 107 °C and 25.3 ± 0.9%.
Take `Nc1c(C(=O)O)cnn1-c1ccc(S(=O)(=O)N(CCc2ccccc2)Cc2ccccc2)cc1` [Compound 30, 5-Amino-1-(4-(N-benzyl-N-phenethylsulfamoyl)phenyl)-1H-pyrazole-4-carboxylic acid]: the melting point was 263 to 266 °C (dec.). On Panx-1 channels [1], the inhibition at 50 µM came to 30 ± 7.2%.
